This experiment deals with mice model of NASH induced by MC-deficient diet. In words: MCD diet-induced NASH mice model. The experiment is classed as in vivo, C57BL/6 mice. The settings on record: BxC-V37e 400 μg/head i.v. or dulaglutide 2 nmol/kg s.c., 4 weeks, FIG. 4. Here is the method: Six-week-old C57BL/6 male wild-type mice were obtained from Koatech Co., Ltd. and fed either chow diet (n=6) or a methionine/choline-deficient (MCD) diet (n=15) for […]. Animal care and procedures were approved in the rodent animal facility area of Knotus Co., Ltd. (Korea; Approval Number: 19-KE-265). After the MCD diet was fed for 18 weeks, 2 nmol/kg dulaglutide (GLP-1 receptor agonist) was subcutaneously injected into mice every other day for 4 weeks, and 400 μg/head BxC-e and BxC-V37e were intravenously injected once a day, three times a week, for 4 weeks. At the end of the experiments, the mice were anesthetized, and their serum and liver tissues were collected. […]
Serum samples were collected 4 weeks after the initiation of BxC-V37e injection, and the following parameters were measured using a blood biochemical analyzer (7180, Hitachi, Japan): ALT (Alanine transaminase), AST (Aspartate transaminase), TG (Triglyceride), glucose, TC (total cholesterol), HDL_C (high-density lipoprotein cholesterol), LDL_C (low-density lipoprotein cholesterol), LDH (lactate dehydrogenase), and GGT (gamma-glutamyltransferase).
Liver tissues were fixed in 10% paraformaldehyde and subjected to general tissue treatment, such as cutting, dehydration, and paraffin embedding. […] Both steatosis and hypertrophy were evaluated at magnifications of 40× to 100×. […]

Take dulaglutide: the “entire liver morphology (colour)” value is “No difference”.

Source of the values: patent US20240125801A1, “MARKER FOR DIAGNOSIS OF NONALCOHOLIC FATTY LIVER DISEASE” (BREXOGEN INC., priority 2021, published 2024).
